Data reported in US5217882A, “Microbial transformation process for producing antihypertensive N2 -glucuronide products” (Merck & Co., Inc., priority 1992, dated 1993).

Molecular target: T1, Angiotensin II (A II) receptor (Oryctolagus cuniculus, UniProt P34976)
T1 construct: tissue Pel-Freeze Biologicals; host or cells: rabbit aorta, membrane preparation
T1 sequence (P34976 1-359): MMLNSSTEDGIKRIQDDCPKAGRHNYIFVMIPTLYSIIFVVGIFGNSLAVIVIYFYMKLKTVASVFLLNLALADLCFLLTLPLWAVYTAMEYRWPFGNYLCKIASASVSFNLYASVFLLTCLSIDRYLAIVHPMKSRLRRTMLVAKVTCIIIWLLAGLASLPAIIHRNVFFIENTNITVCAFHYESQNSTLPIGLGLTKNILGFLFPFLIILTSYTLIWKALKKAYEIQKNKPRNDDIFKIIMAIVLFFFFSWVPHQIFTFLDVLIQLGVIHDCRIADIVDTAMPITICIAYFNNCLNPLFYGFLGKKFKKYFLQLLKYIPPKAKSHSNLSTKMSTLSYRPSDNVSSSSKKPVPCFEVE
Assay: Receptor binding assay using rabbit aortae membrane preparation ("IC50" assay; displacement of 125I-Sar1 Ile8-angiotensin II)
Details: 37° C. for 90 minutes, read-out: inhibitory concentration (IC50) giving 50% displacement of total specifically bound 125I-Sar1 Ile8-angiotensin II
Procedure: This assay is also referred to herein as the "IC50 " assay.
Receptor binding assay using rabbit aortae membrane preparation
Three frozen rabbit aortae (obtained from Pel-Freeze Biologicals) were suspended in 5 mM Tris-0.25M Sucrose, pH 7.4 buffer (50 ml) homogenized, and then centrifuged. The mixture was filtered through a cheesecloth and the supernatant was centrifuged for 30 minutes at 20,000 rpm at 4° C. The pellet thus obtained was resuspended in 30 ml of 50 mM Tris-5 mM MgCl2 buffer containing 0.2% Bovine Serum Albumin and 0.2 mg/ml Bacitration and the suspension was used for 100 assay tubes. Samples tested for screening were done in duplicate. To the membrane preparation (0.25 ml) there was added ^125 I-Sar^1 -Ile^8 -angiotensin II [obtained from New England Nuclear] (10 ul; 20,000 cpm) with or without the test sample and the mixture was incubated at 37° C. for 90 minutes. The mixture was then diluted with ice-cold 50 mM Tris-0.9% NaCl, pH 7.4 (4 ml) and filtered through a glass fiber filter (GF/B Whatman 2.4" diameter). The filter was soaked in scintillation cocktail (10 ml) and counted for radioactivity using Packard 2660 Tricarb liquid scintillation counter. […]

**Q.** Which IC50 does the source give for `CCCCc1nc(Cl)c(CO)n1Cc1ccc(-c2ccccc2-c2nnn(C3OC(C(=O)O)C(O)C(O)C3O)n2)cc1` (stereo not shown) [compound (I)] here?
**A.** < 50 µM
